Test results from ChEMBL document CHEMBL6153037, “Developing dual-responsive quinolinium prodrugs of 8-hydroxyquinoline by harnessing the dual chelating sites” (Eur J Med Chem, 2025).
Active and inactive are the calls of the source. The calls are words filed in the database; no cut-off is given here.

What was measured:
MDA-MB-231 [1] = test: Induction of cell cycle arrest in human MDA-MB-231 cells assessed as accumulation at G0/G1 phase in presence of UV by PI staining based flow cytometry (reference value: 43.25 %); format: functional
MDA-MB-231 [2] = test: Induction of apoptosis in human MDA-MB-231 cells assessed as late apoptotic cells incubated for 24 hrs in presence of UV by Annexin V-FITC/PI staining based flow cytometry (reference value: 2.4 %); format: functional
MDA-MB-231 [3] = test: Induction of apoptosis in human MDA-MB-231 cells assessed as early apoptotic cells incubated for 24 hrs by Annexin V-FITC/PI staining based flow cytometry (reference value: 1.94 %); format: functional
[4] = Hepatorenal toxicity in ICR mouse assessed as change in BUN level at 30 mg/kg, iv measured after 48 hrs; format: organism-based; conditions: in vivo
[5] = Prodrug conversion in PBS at pH 7.4 containing H2O2 assessed as PBAPE intermediate with exposed quinoline nitrogen by measuring retention time at 50 uM measured for 30 mins by HPLC analysis; format: ADME; conditions: buffer, pH 7.4, 0.5 h
MDA-MB-231 [6] = test: Inhibition of mitochondrial membrane potential in human MDA-MB-231 cells incubated for 24 hrs by JC-1 dye based analysis (reference value: 5.51 %); format: functional
[7] = Hepatorenal toxicity in ICR mouse assessed as change in serum creatinine level at 30 mg/kg, iv measured after 48 hrs; format: organism-based; conditions: in vivo
MDA-MB-231 [8] = test: Inhibition of mitochondrial membrane potential in human MDA-MB-231 cells incubated for 24 hrs in presence of UV by JC-1 dye based analysis (reference value: 5.51 %); format: functional
MDA-MB-231 [9] = test: Induction of apoptosis in human MDA-MB-231 cells assessed as early apoptotic cells incubated for 24 hrs in presence of UV by Annexin V-FITC/PI staining based flow cytometry (reference value: 1.94 %); format: functional
MDA-MB-231 [10] = test: Induction of apoptosis in human MDA-MB-231 cells assessed as viable cells incubated for 24 hrs by Annexin V-FITC/PI staining based flow cytometry (reference value: 92.06 %); format: functional
MDA-MB-231 [11] = test: Induction of apoptosis in human MDA-MB-231 cells assessed as necrotic cells incubated for 24 hrs in presence of UV by Annexin V-FITC/PI staining based flow cytometry (reference value: 3.6 %); format: functional
MDA-MB-231 [12] = test: Cytotoxicity against human MDA-MB-231 cells incubated for 48 hrs in absence of UV by MTT assay; format: functional, cell-based
MDA-MB-231 [13] = test: Induction of apoptosis in human MDA-MB-231 cells assessed as necrotic cells incubated for 24 hrs by Annexin V-FITC/PI staining based flow cytometry (reference value: 3.6 %); format: functional
MCF-10A = test: Cytotoxicity against human MCF-10A cells exposed to UV incubated for 48 hrs by MTT assay; format: toxicity, cell-based
[14] = Prodrug conversion in PBS at pH 7.4 exposed to UV assessed as 8-Hydroxy-1-(4-(4,4,5,5-tetramethyl-1,3,2-dioxaborolan-2-yl)benzyl)quinolin-1-ium bromide metabolite formation by measuring retention time at 50 uM measured for 30 mins by HPLC analysis; format: ADME; conditions: buffer, pH 7.4, 0.5 h
MDA-MB-231 [15] = test: Induction of cell cycle arrest in human MDA-MB-231 cells assessed as accumulation at G0/G1 phase by PI staining based flow cytometry (reference value: 43.25 %); format: functional
[16] = Hepatorenal toxicity in ICR mouse assessed as change in ALT level at 30 mg/kg, iv measured after 48 hrs; format: organism-based; conditions: in vivo
[17] = Prodrug conversion in PBS at pH 7.4 exposed to UV assessed as 8-HQ release by measuring retention time at 50 uM measured for 30 mins by HPLC analysis; format: ADME; conditions: buffer, pH 7.4, 0.5 h
MDA-MB-231 [18] = test: Induction of apoptosis in human MDA-MB-231 cells assessed as late apoptotic cells incubated for 24 hrs by Annexin V-FITC/PI staining based flow cytometry (reference value: 2.4 %); format: functional
MDA-MB-231 [19] = test: Cytotoxicity against human MDA-MB-231 cells incubated for 48 hrs in presence of UV by MTT assay; format: functional, cell-based
MDA-MB-231 [20] = test: Induction of apoptosis in human MDA-MB-231 cells assessed as viable cells incubated for 24 hrs in presence of UV by Annexin V-FITC/PI staining based flow cytometry (reference value: 92.06 %); format: functional
[21] = Hepatorenal toxicity in ICR mouse assessed as change in AST level at 30 mg/kg, iv measured after 48 hrs; format: organism-based; conditions: in vivo

What does the source list for `Br.CC1(C)OB(c2ccc(C[n+]3cccc4cccc(OCc5ccccc5[N+](=O)[O-])c43)cc2)OC1(C)C`?
Activity (MDA-MB-231 [1]): 58.23%; Activity (MDA-MB-231 [2]): 19.66%; Activity (MDA-MB-231 [3]): 8.03%; Activity [4]: Non-toxic; Retention_time [5]: 14.8 min; inhibition (INH) (MDA-MB-231 [6]): 15.85%; Activity [7]: Non-toxic; inhibition (INH) (MDA-MB-231 [8]): 62.81%; Activity (MDA-MB-231 [9]): 23.32%; Activity (MDA-MB-231 [10]): 80.18%; Activity (MDA-MB-231 [11]): 4.21%; Activity (MDA-MB-231 [12]): inactive; Activity (MDA-MB-231 [13]): 1.03%; Activity (MCF-10A): Non-toxic; Retention_time [14]: 16.4 min; Activity (MDA-MB-231 [15]): 45.12%; Activity [16]: Non-toxic; Retention_time [17]: 3.6 min; Activity (MDA-MB-231 [18]): 10.76%; Activity (MDA-MB-231 [19]): Dose-dependent-effect; Activity (MDA-MB-231 [20]): 52.82%; Activity [21]: Non-toxic
